Experimental data reported in publication PMC6095626, “Screening of the Pathogen Box for inhibitors with dual efficacy against Giardia lamblia and Cryptosporidium parvum” (PLoS Neglected Tropical Diseases, 2018).

Tests used:
[1] = system: G. lamblia trophozoites (luciferase expressing, WBC6); experiment: microbe, parasite or virus in culture; assay type: cell-based, Giardia lamblia; settings: initial Pathogen Box screen, single concentration 16 µM, inhibition compared to DMSO wells
How it was run: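 Incubation ran 24 h at 37 °C under anaerobic conditions, with compound added in equal volume to trophozoites (WBC6, luciferase-expressing, 250,000 cells/mL). Bioluminescence was the read-out, cross-checked by MOXI Z counts on a duplicate plate; metronidazole served as control (1:2 dilutions from 40 μM).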

[2] = system: C. parvum (UGA1 Nluc expressing strain in HCT-8 cells); experiment: microbe, parasite or virus in culture; assay type: cell-based, Cryptosporidium parvum; settings: initial Pathogen Box screen, single concentration 10 µM, inhibition compared to DMSO wells
How it was run: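 Parasite growth quantified by NanoLuc luminescence from lysed infected HCT-8 cells, with EC50 fitted from dose curves. Compounds, single-dose 10 μM or serially diluted, were added to confluent 48 h monolayers before infection with bleached UGA1 Nluc oocysts.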

SMILES | Giardia (16 uM) Mean % inhibition [1] | Crypto (10 uM) Mean % inhibition [2]
O=C(OCc1ccccc1)N1CCC(c2cc(-c3ccncc3)c(-c3ccc(F)cc3)[nH]2)CC1 [MMV688509] | 41% | X* (Mean or standard deviation are negative but not significantly different from the control to be a growth promoter)
CC(C)(C)C(O)C(Oc1ccc(-c2ccccc2)cc1)n1cncn1 (centres unmarked) [MMV688942] | 40% | X* (Mean or standard deviation are negative but not significantly different from the control to be a growth promoter)
N#Cc1ccc(-c2ccc(OCC(N)=O)cc2)cc1 [MMV053220] | 74% | 52%
Cc1ccc2oc(-c3cc(NC(=O)Cc4ccccc4)ccc3Cl)nc2c1 [MMV676509] | 27% | 56%
COc1ccc(Oc2ccc([C@@H](C)N(C)c3ncc4c(N)nc(N)nc4n3)cc2)cc1 [MMV690102] | 62% | 77%
COc1ccc(-c2nn(C(C)C)c3ncnc(N)c23)cc1OC [MMV675993] | X* (Mean or standard deviation are negative but not significantly different from the control to be a growth promoter) | 89%
Cc1cccc(C(=O)Nc2ccnc(N(C)C3CCN(CC(C)C)CC3)c2)c1 [MMV024829] | 89% | X* (Mean or standard deviation are negative but not significantly different from the control to be a growth promoter)
Cc1cc2nc(NC(=O)C(C)(C)C)nc(Cl)c2n1Cc1ccc(Cl)cc1 [MMV688704] | 42% | 76%
CC(=O)NC[C@H]1CN(c2ccc(N3CCSCC3)c(F)c2)C(=O)O1 [MMV688756] | 22% | 39%
COc1cccc(OC)c1C(=O)Nc1ccc(Cl)c(-c2nc3ccccc3s2)c1 [MMV676472] | 28% | X* (Mean or standard deviation are negative but not significantly different from the control to be a growth promoter)
O=C1N(Cc2cc3ccccc3s2)CC2CN(Cc3ccccc3)CCN12 (centres unmarked) [MMV084603] | 62% | 43%
CC(Oc1ccccc1)C(=O)Nc1nc(-c2ccccn2)cs1 (centres unmarked) [MMV676411] | 16% | 86%
CC1CCCN(C(=O)C(C)Nc2cc(Cl)ccc2N2CCOCC2)C1 (centres unmarked) [MMV020388] | 62% | X* (Mean or standard deviation are negative but not significantly different from the control to be a growth promoter)
Cc1nc(-c2cccc(NCc3ccccc3)c2)[nH]c1C [MMV023227] | 58% | 25%
CC(c1cc(Cl)cc(Cl)c1)N(C)c1ncc2c(N)nc(N)nc2n1 (centres unmarked) [MMV689437] | 46% | X* (Mean or standard deviation are negative but not significantly different from the control to be a growth promoter)
CNC(=O)C1Cc2ccccc2N1C(=O)Cc1ccc(F)cc1 (centres unmarked) [MMV188296] | 33% | 54%
Cc1ccc(S(=O)(=O)N2CCN(C(=O)c3cc(-c4ccccc4)n[nH]3)CC2)cc1 [MMV019742] | X* (Mean or standard deviation are negative but not significantly different from the control to be a growth promoter) | X* (Mean or standard deviation are negative but not significantly different from the control to be a growth promoter)
Cc1nc(-c2ccccn2)nc(N(C)CCc2ccccc2)c1Cl [MMV658988] | X* (Mean or standard deviation are negative but not significantly different from the control to be a growth promoter) | 33%
Nc1ccc2ncnc(Nc3ccc(OCc4cccc(F)c4)c(Cl)c3)c2c1 [MMV688273] | 51% | X* (Mean or standard deviation are negative but not significantly different from the control to be a growth promoter)
